Test results published in publication PMC10223898 (Pharmaceuticals, 2023).
Where two headings read alike, the source gives them in different places.

What was measured:
LsrK [1] = molecular target: T1, LsrK (Salmonella typhimurium, UniProt Q8ZKQ6); test: LsrK inhibition assay (Kinase-Glo luminescence); type: biochemical, S. typhimurium; conditions: for inhibition at 200 µM: compound at 200 μM
T1 construct: hexa-histidine (C); made in house; host or cells: E. coli BL21(DE3), pET-28a
Method: (§1) To express LsrK or LsrK-N with a hexa-histidine tag at the C-terminus, the LsrK or LsrK-N encoding gene of S. typhimurium was amplified using primers carrying restriction endonuclease sites for BamHI and XhoI, respectively. The amplified product was cloned into the expression vector pET-28a with a C-terminal hexa-histidine tag and transfected into E. coli BL21(DE3) cells. The transformed cells were selected on LB agar plates containing 50 µg/mL kanamycin. The recombinant isolates were grown at 37 °C to the mid-log exponential phase. Protein synthesis was induced by 0.5 mM IPTG. After overnight growth, the cells were pelleted at 13,000× g for 10 min at 4 °C, resuspended in lysis buffer (50 mM NaH2PO4, 300 mM NaCl, and pH 8.0), and sonicated on ice for 10 cycles with a 30-s pulse and 30-s pause. The bacterial lysate was then centrifuged at 4 °C, 13,000× g for 10 min, and the supernatant passed through a 0.22 µm filter.
The LsrK inhibition assay was performed as described previously. The 62 selected compounds were dissolved in DMSO at a concentration of 2 mM. The assay was carried out with final concentrations of 300 nM LsrK, 100 μM ATP, and 300 μM DPD in a reaction buffer containing 25 mM TEA, pH 7.4, 800 μM MgCl2, and 0.1 mg/mL BSA. Specifically, 10 μL DPD, 10 μL LsrK, and 5 μL of the compound were added to a 96-well plate, and a 25 μL ATP or 25 μL reaction buffer was added after 30 min of incubation. The plate was incubated for 10 min at 37 °C, then 50 μL of kit reagent was added and the plate was incubated at 37 °C for 15 min. The luminescence signal was measured by the Enspire 2300 microplate reader (PerkinElmer). To confirm the activity of hits selected by primary screening, dose-response experiments were performed (200–6.25 µM). The inhibition % for each tested compound was determined as described previously. The IC50 values were calculated using the four logistic parameters.

[2] = system: AI-2 QS in WHQ02 (E. coli BL21 ΔTolC pWHQ01); test: Cell-based AI-2-mediated QS interference assay in WHQ02; conditions: Escherichia coli
Excerpt: (§2) All chemicals were purchased from Sigma-Aldrich (St. Louis, MO, USA) if not otherwise stated. DPD was purchased from […] ZZBIO Co., Ltd. (Shanghai, China). The Kinase-Glo Max Luminescent kinase assay kit was purchased from Promega Corp. (Madison, WI, USA). The NTA sensor chip was purchased from GE Healthcare (Chicago, IL, USA). All compounds selected by virtual screening were purchased from Topscience Biotechnology Co., Ltd. (Shanghai, China). The QS reporter strains WHQ01 (S. typhimurium ATCC 202165 ΔTolC pWHQ01) and WHQ02 (E. coli BL21 ΔTolC pWHQ01) were donated by Huiqi Wen (Institute of Microbiology and Epidemiology, Academy of Military Sciences, Beijing, China). The plasmid pWHQ01 was constructed by cloning of lsr promoters and the luxCDABE luminescent gene. BamHI, XhoI, EcoRI, and NotI restriction endonucleases were purchased from New England Biolabs (Ipswich, MA, USA). pET-28a and pGEX-4T-1 were purchased from Novagen (Madison, WI, USA). E. coli BL21 (DE3) was purchased from TransGen Biotech Co., Ltd. (Beijing, China). The Ni-NTA column and GST Gravity column were purchased from Sangon Biotech (Shanghai, China). Sodium dodecyl sulfate-polyacrylamide gel electrophoresis (SDS-PAGE) gels and the Bradford Protein Assay Kit were purchased from Thermo Fisher Scientific (Waltham, MA, USA). Ultrafiltration centrifuge tubes were purchased from Millipore (Bedford, MA, USA). Dialysis bags were purchased from Beijing Solarbio Science and Technology Co., Ltd. (Beijing, China).
(§3) WHQ01 or WHQ02 was cultured overnight and diluted 1:100 in fresh LB supplemented with 100 µg/mL ampicillin and grown at 30 °C until the logarithmic phase (OD600 = 0.4–0.6). The bacterial culture was centrifuged at 4000× g for 5 min and the pellet was resuspended with fresh LB to prepare a suspension of 2 McFarland standard, which was added to a 96-well plate. In the experimental group, 62 compounds with final concentrations ranging from […] were added to obtain a total volume of 100 µL. A negative control comprising 100 µL of LB with DMSO of the same volume and a positive control comprising 100 µL of LB supplemented with 2% glucose and DMSO of the same volume were also added. Then, bacteria were grown at 37 °C for 3 h. The […] of WHQ01 or WHQ02 was directly regulated by the Lsr promoters to reflect the strength of AI-2 QS. Luminescence was measured by the Enspire 2300 microplate reader. To further study the effect of compounds on bacterial growth, a suspension containing 1 × 10^8 CFU/mL of WHQ01 or WHQ02 (0.5 McFarland standard) was diluted 1:100 with LB and added to a 96-well plate. Compounds were added to the 96-well plate at a final concentration of 100 µM and diluted in a gradient. DMSO of the same volume was added as the control group. The plate was grown at 37 °C for 18–24 h. The OD600 values were recorded using the Enspire 2300 microplate reader. The experiment was performed three times.

[3] = system: AI-2 QS in WHQ01 (S. typhimurium ATCC 202165 ΔTolC pWHQ01); test: Cell-based AI-2-mediated QS interference assay in WHQ01; conditions: Salmonella enterica, read-out: WHQ01 (IC50)
Excerpt: as §2, §3

[4] = molecular target: T2, LsrK-N protein (HPr binding domain, residues 1-260) (Salmonella typhimurium, UniProt Q8ZKQ6); test: SPR assay on immobilized LsrK-N; set-up: species or system S. typhimurium
T2 construct: hexa-histidine (C); made in house; host or cells: E. coli BL21(DE3), pET-28a
T2 sequence (Q8ZKQ6 1-260): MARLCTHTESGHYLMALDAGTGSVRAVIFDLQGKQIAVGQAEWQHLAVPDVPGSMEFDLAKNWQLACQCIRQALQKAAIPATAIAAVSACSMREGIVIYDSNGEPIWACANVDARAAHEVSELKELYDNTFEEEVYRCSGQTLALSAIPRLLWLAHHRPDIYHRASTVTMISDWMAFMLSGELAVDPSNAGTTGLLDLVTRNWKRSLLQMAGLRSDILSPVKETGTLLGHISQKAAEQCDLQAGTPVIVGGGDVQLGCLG
Method: as §1
(§4) Serial dilutions of compound 4171-0375 were injected, ranging in concentrations from 100 to 1.56 µM, an intermediate concentration of 12.5 µM was set as a repeat, and 1× PBS-T with 5% v/v DMSO was set as a control group. The association time was set to 120 s, the dissociation time was set to 130 s, and the flow rate was set to 30 µL/min. The resulting data were fit to the affinity binding model using Biacore Evaluation Software (GE Healthcare).

LsrK [5] = molecular target: T1, LsrK; test: LsrK inhibition assay (Kinase-Glo luminescence); type: biochemical, S. typhimurium; conditions: dose-response curves at 50, 100 and 150 μM ATP
LsrK [6] = molecular target: T1, LsrK; test: SPR assay on immobilized LsrK; type: binding, S. typhimurium
Method: as §1, §4

[7] = dose-response 200–6.25 µM, 100 μM ATP, 300 μM DPD, mean ± SD, n = 3, read-out: LsrK (IC50)
[8] = dose-response assay, read-out: LsrK inhibition IC50

T1 sequence (Q8ZKQ6 whole entry): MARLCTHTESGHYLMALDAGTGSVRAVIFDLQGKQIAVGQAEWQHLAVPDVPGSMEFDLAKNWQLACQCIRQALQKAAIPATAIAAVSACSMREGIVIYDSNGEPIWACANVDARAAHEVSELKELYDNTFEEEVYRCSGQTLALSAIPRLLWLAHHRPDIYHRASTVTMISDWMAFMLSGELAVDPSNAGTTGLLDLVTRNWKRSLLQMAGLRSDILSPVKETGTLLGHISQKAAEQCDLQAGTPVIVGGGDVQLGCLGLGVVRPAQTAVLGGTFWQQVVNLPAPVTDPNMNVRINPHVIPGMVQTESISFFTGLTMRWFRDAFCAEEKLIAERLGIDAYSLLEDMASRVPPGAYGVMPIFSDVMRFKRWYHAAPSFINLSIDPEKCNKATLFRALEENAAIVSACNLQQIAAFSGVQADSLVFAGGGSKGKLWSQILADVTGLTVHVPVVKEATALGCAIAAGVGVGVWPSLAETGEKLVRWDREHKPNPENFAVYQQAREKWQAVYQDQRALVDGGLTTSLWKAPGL

Cc1ccc(NC(=O)C[C@H](C)n2ccnc2)cc1Cl [Compound G268-0878]
inhibition at 200 µM (LsrK [1]; mean ± SD, n = 3): 58 ± 5% | IC50 (LsrK [1]; [7]): 129 ± 6.14 µM | IC50 ([2]; BL21, read-out: WHQ02 (IC50)): 42.3 ± 1.42 µM | IC50 [3]: 30.6 ± 1.26 µM

CCOc1cc(/C=N/NC(=N)N)ccc1OCc1ccc(Cl)cc1 [Compound 4171-0375]
inhibition at 200 µM (LsrK [1]; mean ± SD, n = 3): 98 ± 7% | IC50 (LsrK [1]; [7]): 26.1 ± 2.94 µM | IC50 (LsrK [1]; [8]): < 100 µM | Kd ([4]; His-tagged LsrK-N on NTA chip, Biacore 8K, affinity model): 25.1 µM | binding and dissociation behaviour on LsrK-N (SPR) ([4]; sensorgram, in words): quickly bound and dissociated | ATP competition (mode of inhibition) (LsrK [5]): non-ATP competitive inhibitors | IC50 ([2]; BL21, read-out: AI-2 QS inhibition IC50 against WHQ02): 29.1 ± 1.23 µM | IC50 ([2]; BL21, read-out: WHQ02 (IC50)): 30.1 ± 1.62 µM | IC50 [3]: 42.9 ± 1.63 µM | Kd (LsrK [6]; His-tagged LsrK on NTA chip, Biacore 8K, affinity model): 94.5 µM | binding and dissociation behaviour on LsrK (SPR) (LsrK [6]; sensorgram, in words): quickly bound and dissociated

CCOc1cc(C2NC(C(=O)O)CS2)ccc1OCc1c(F)cccc1Cl (stereo not shown) [Compound 8012-5390]
inhibition at 200 µM (LsrK [1]; mean ± SD, n = 3): 60 ± 4% | IC50 (LsrK [1]; [7]): 147 ± 5.58 µM | IC50 ([2]; BL21, read-out: WHQ02 (IC50)): 17.7 ± 0.98 µM | IC50 [3]: 23.3 ± 1.05 µM

NCCc1cn(Cc2ccc(C(F)(F)F)cc2)nn1 [Compound 8020-4294]
inhibition at 200 µM (LsrK [1]; mean ± SD, n = 3): 65 ± 9% | IC50 (LsrK [1]; [7]): 148 ± 6.92 µM | IC50 ([2]; BL21, read-out: WHQ02 (IC50)): 67.2 ± 4.32 µM | IC50 [3]: 24.9 ± 1.1 µM

COc1cc(/C=C2/SC(=S)N(c3cccc(C(F)(F)F)c3)C2=O)ccc1OCC(=O)O [Compound 3229-1889]
inhibition at 200 µM (LsrK [1]; mean ± SD, n = 3): 63 ± 4% | IC50 (LsrK [1]; [7]): 121 ± 5.37 µM | IC50 ([2]; BL21, read-out: WHQ02 (IC50)): 15 ± 1.24 µM | IC50 [3]: 24.7 ± 1.42 µM

CN1CCN(C(=O)c2ccc(NCc3ccc(F)cc3)c(S(=O)(=O)Nc3cccc(C(F)(F)F)c3)c2)CC1 [Compound K659-0421]
inhibition at 200 µM (LsrK [1]; mean ± SD, n = 3): 75 ± 8% | IC50 (LsrK [1]; [7]): 73.7 ± 5.33 µM | IC50 (LsrK [1]; [8]): < 100 µM | ATP competition (mode of inhibition) (LsrK [5]): non-ATP competitive inhibitors | IC50 ([2]; BL21, read-out: WHQ02 (IC50)): 17 ± 0.37 µM | IC50 [3]: 7.97 ± 0.38 µM

Cc1c(CC(=O)O)c(=O)oc2c(C)c(OCc3ccc(F)cc3F)ccc12 [Compound D715-0257]
inhibition at 200 µM (LsrK [1]; mean ± SD, n = 3): 57 ± 7% | IC50 (LsrK [1]; [7]): 153 ± 5.43 µM | IC50 ([2]; BL21, read-out: WHQ02 (IC50)): 22.3 ± 2.15 µM | IC50 [3]: 21.1 ± 1.18 µM
